{
  "source": "paper PMC10135378",
  "about": "“Synthesis of Novel N-Heterocyclic Carbene-Ruthenium (II) Complexes, “Precious” Tools with Antibacterial, Anticancer and Antioxidant Properties” (Antibiotics, 2023)",
  "key": {"[1]": {"test_system": "Escherichia coli (ATCC 25922)", "assay": "MIC/MBC broth dilution, E. coli", "type": "cell-based", "details": "control for strain sensitivity", "experimental": "(§1) One Gram-negative (Escherichia coli (ATCC® 25922TM)) and two Gram-positive bacterial strains (Enterococcus faecalis (ATCC® 19433TM) and Staphylococcus aureus (ATCC® 23235TM)] were used for MIC and MBC values determination, according to CLSI guidelines. MIC represents the lowest concentration of compound inhibiting the visible microbial growth and expressed as μg/mL; MBC is the lowest concentration able to kill the bacteria. Both determinations were performed by the broth dilution method. Bacteria were grown overnight in LB medium (2%), then diluted to a density of […] colony forming units (CFUs) per mL, plated in sterile 96-well microplates, obtaining about 10^5 cells/ well. Increasing concentrations of the Ru-NHC complexes (1, 10, 25, 50, 70, 100 µg/mL) were used. After incubation at 37 °C for 18 h (overnight), bacterial growth was checked at a wavelength of 600 nm using a Multiskan spectrophotometer (model Multiskan Ex Microplate; Thermo Scientific, Nyon, Switzerland) and MIC or MBC values were determined, comparing cell density with a positive control (bacterial cells grown in LB medium were added with only the vehicle, DMSO). Each experiment was carried out five times, in triplicate. Ampicillin (Sigma Aldrich A9393) was used as the control for strain sensitivity."}, "[2]": {"test_system": "Staphylococcus aureus (ATCC 23235)", "assay": "MIC/MBC broth dilution, S. aureus", "type": "cell-based", "details": "control for strain sensitivity", "experimental": "as §1"}, "[3]": {"test_system": "Enterococcus faecalis (ATCC 19433)", "assay": "MIC/MBC broth dilution, E. faecalis", "type": "cell-based", "details": "control for strain sensitivity", "experimental": "as §1"}, "[4]": {"assay": "DPPH radical scavenging assay", "details": "30 min, room temperature, 517 nm", "experimental": "Generally, the DPPH radical is able to accept hydrogen radicals or an electron, turning into a stable molecule. The interaction with Ru-NHC complexes induces the reduction of DPPH radical intensity measured at 517 nm, due to the conversion of the purple DPPH radical into its corresponding yellow hydrazine form.\nThe radical scavenging properties of Ru-NHC complexes on the 1,1-diphenyl-2-picryl-hydrazil (DPPH) radical were evaluated as described by Fazio et al., with minor corrections. Then, 20 μL of each Ru complex, properly dissolved in DMSO, were mixed with methanol DPPH 0.1 mM (180 μL) in a 48-well plate obtaining […] different concentrations (10, 50, 100, 200 and 300 µg/mL). Next, 20 μL of DMSO in 180 μL of DPPH methanol solution was diluted as the control. The mixture was vigorously shaken and incubated (room temperature, 30 min, in the dark). The scavenging activity was measured at 517 nm, using a microplate reader. DPPH radical scavenging was expressed as inhibition percentages (%IDPPH) for the Ru complexes compared to the initial concentration of DPPH (control) according to the formula: %IDPPH=A0−A/A0×100 where A0 is the absorbance at 517 nm of the control reaction and A is the absorbance at 517 nm in the presence of samples.\nThe obtained IDPPH percentages allowed the IC50 values determination, using GraphPad Prism 9 software (GraphPad Inc., San Diego, CA, USA). Trolox was employed as a positive control."}, "[5]": {"assay": "ABTS radical scavenging assay", "details": "5 min, room temperature, 730 nm", "excerpt": "To further analyze the Ru-NHC complexes antiradical potential, we examined their capability to interfere with the ABTS radical cation, a well-known protonated radical with a characteristic maximal absorbance at 730 nm, which diminishes with the scavenging of the radical proton. The assay measures radical scavenging by the electron donation. The outcomes in terms of ABTS% scavenging activity are reported in Figure 7 and IC50 values of Ru-NHC complexes, together with the standard Trolox, on ABTS radical are summarized in Table 3 and Table S3.\nThe radical scavenging properties of the Ru-NHC complexes on a 2,2′-azino-bis(3-ethylbenzothiazoline-6-sulfonate) radical cation (ABTS^•+) were calculated as described by Fazio et al., with few adjustments. Briefly, 2 mM ABTS and 70 mM potassium persulfate water solutions were mixed and incubated to obtain ABTS^•+ radical stock solution (16 h, room temperature, in the dark). ABTS solution was diluted in ethanol to obtain an absorbance of 0.70 ± 0.02 at 730 nm, prior to use. Then, 2 μL of each Ru-NHC complex at different concentrations, properly dissolved in DMSO, were mixed with 198 μL of the ABTS^•+ solution in a 48-well plate obtaining the following concentrations: 0.1, 1, 10, 50, and 100 µg/mL. The solutions were vigorously shaken and incubated (5 min, room temperature, in the dark). The ABTS scavenging activity was determined at 730 nm, using a microplate reader. The control was prepared mixing 2 μL of DMSO with 198 μL of the ABTS^•+ solution. The ABTS radical scavenging was expressed as inhibition percentages (%IABTS) of each complex compared to the control, according to the formula: %IABTS=A0−A/A0×100 where A0 is the absorbance at 730 nm of the control reaction and A is the absorbance at 730 nm in the presence of samples.\nIC50 values for the Ru complexes were calculated from the %IABTS using GraphPad Prism 9 software (GraphPad Inc., San Diego, CA, USA). Trolox was employed as the positive control."}, "MDA-MB-231 cells": {"test_system": "MDA-MB-231 cells", "assay": "MTT assay, anticancer activity on MDA-MB-231 cells", "type": "cell-based, human", "details": "MTT, 72 h exposure, 0.1-100 µM", "experimental": "(§2) The anticancer activity of all the synthesized Ru-NHC complexes (RANHC I-VI) was studied in two human breast cancer cell lines, namely the estrogen receptor positive (ER+) MCF-7 cells and the triple negative MDA-MB-231 cells (ER-, PR-, and HER-2/Neu not overexpressed), and neuroblastoma cells, i.e., SH-SY5Y. First, the cells were exposed for 72 h at different concentrations of the studied complexes (from 0.1 to 100 µM) and then their viability was checked by MTT assay.\n(§3) The adopted cells (breast cancer MCF-7 and MDA-MB-231 and human mammary epithelial MCF-10A cells) were purchased from American Type Culture Collection (ATCC, Manassas, VA, USA) and cultured as indicated. The mouse embryonic fibroblast BALB/3T3 and neuroblastoma SH-SY5Y were also obtained from American Type Culture Collection (ATCC, Manassas, VA, USA) and cultured in DMEM high glucose supplemented with 100 U mL^−1 penicillin/streptomycin and 10% bovine calf serum (BCS) or 10% fetal bovine serum (FBS), respectively.\n(§4) MTT assay (Sigma Aldrich (St. Louis, MO, USA)) was used for the in vitro anticancer activity evaluation, as previously reported. The Ru-NHC complexes were employed at different concentrations (0.1–1–10–25–50–100 μM) for 72 h. The IC50 values were calculated from the percent (%) of control using GraphPad Prism 9 (GraphPad Software, La Jolla, CA, USA)."}, "MCF-7 cells": {"test_system": "MCF-7 cells", "assay": "MTT assay, anticancer activity on MCF-7 cells", "type": "cell-based, human", "details": "72 h exposure, 0.1-100 µM", "experimental": "as §2, §3, §4"}, "SH-SY5Y cells": {"test_system": "SH-SY5Y cells", "assay": "MTT assay, anticancer activity on SH-SY5Y neuroblastoma cells", "type": "cell-based", "details": "72 h exposure, 0.1-100 µM", "experimental": "as §2, §3, §4"}, "MCF-10A cells": {"test_system": "MCF-10A cells", "assay": "MTT assay, non-tumoral MCF-10A cells", "type": "cell-based, human", "details": "72 h exposure", "excerpt": "(§5) Additionally, we investigated the selectivity of all the synthesized Ru-NHC complexes on the cancer cells by studying their capability to interfere with the growth of two non-tumoral cells, namely the MCF-10A and BALB/3T3 cells.\nas §3, §4"}, "BALB/3T3 cells": {"test_system": "BALB/3T3 cells", "assay": "MTT assay, non-tumoral BALB/3T3 fibroblasts", "type": "cell-based", "details": "72 h exposure, non-tumoral mouse embryonic fibroblasts", "excerpt": "as §5, §3, §4"}},
  "data": [
    {"smiles": "CC1(C)S[C@@H]2[C@H](NC(=O)[C@H](N)c3ccccc3)C(=O)N2[C@H]1C(=O)O", "note": "[ampicillin, Ampicillin, reference compound]", "values": [
      {"measurement": "strain sensitivity to ampicillin, E. coli", "setting": "[1]", "result": "ampicillin-sensible"},
      {"measurement": "strain sensitivity to ampicillin, S. aureus", "setting": "[2]", "result": "ampicillin-sensible"},
      {"measurement": "strain sensitivity to ampicillin, E. faecalis", "setting": "[3]", "result": "ampicillin-sensible"}
    ]},
    {"smiles": "Cc1c(C)c2c(c(C)c1O)CCC(C)(C(=O)O)O2", "note": "(stereo not shown) [Trolox, reference compound]", "values": [
      {"measurement": "IC50", "setting": "[4]", "result": "99.91 ± 0.9", "unit": "µM"},
      {"measurement": "IC50", "setting": "[5]", "result": "92.3 ± 0.9", "unit": "µM"}
    ]},
    {"smiles": "N.N.[Cl][Pt][Cl]", "note": "[Cisplatin, reference compound]", "values": [
      {"measurement": "IC50", "setting": "MDA-MB-231 cells", "result": "32.1 ± 1", "unit": "µM"},
      {"measurement": "IC50", "setting": "MCF-7 cells", "result": "26.2 ± 1.1", "unit": "µM"},
      {"measurement": "IC50", "setting": "SH-SY5Y cells", "result": "18.8 ± 0.9", "unit": "µM"},
      {"measurement": "IC50", "setting": "MCF-10A cells", "result": "80.24 ± 0.8", "unit": "µM"},
      {"measurement": "IC50", "setting": "BALB/3T3 cells", "result": "21.6 ± 1.2", "unit": "µM"}
    ]}
  ]
}
